Results taken from patent US5300284A, “Glycosaminoglycanase inhibitor andethane diol composition for maintenance of hair growth” (priority 1991, dated 1994).

Assay: Flow-through skin penetration of 14C-labelled glucarolactone
Assay type: in vitro ADME, pig
Settings: 20 hours
Description: In order to simulate human skin penetration in vivo, full thickness pig skin was used in a flow-through skin penetration cell system. For this purpose, the technique described by Bronough R L, and Stuart R F in "Methods for in vitro percutaneous absorption studies IV: The flow-throughdiffusion cell", published in J. Pharm.
This system allows for the study of percutaneous absorption from topically applied substances in a controlled manner, i.e. at controlled temperature and with constant receptor fluid flow rate. The flow-through skin penetration cell has a surface area of skin of 0.38 cm^2 exposed to a formulation containing a test substance. At time zero, 25 μl of a formulation containing tracer amounts of ^14 C-labelled glucarolactone was applied to the skin and left for 20 hours. During this period of penetration, receptor fluid flowing underneath the dermal side of the skin was collected in fractions at 2 hour intervals. At time 20 hours, the skin was vigorously washed to remove all non-absorbed material, the remaining receptor fluid in the cell also being collected at this time.
Subsequently, the piece of skin was detached from the cell and keratatomed at a thickness of about 1.3 mm. This procedure will separate the lower section of the dermis from that containing the stratum corneum, viable epidermis, upper part of dermis and neck of hair follicle. To refine further the picture of distribution of radioactivity, the upper section was subsequently tape stripped 5 times using transparent adhesive tape to remove residual radioactive materials adhering to the outer surface of the skin. All these sections were digested and counted for radioactivity. Each penetration cell therefore yielded 4 results:
i) transdermal penetration, i.e. the amount retrieved in receptor fluid flowing on the dermal side of the skin;
ii) tape strips, i.e. amounts of radio active material adhering to the skin surface;
iii) upper section of skin, i.e. remainder of stratum corneum, neck of hair follicle, viable epidermis and upper part of dermis;
iv) lower section of skin, i.e. remainder of dermis containing the remaining part of hair follicles and dermal papillae.
The results obtained from categories ii), iii) and iv) above together constitute the amounts retrieved from within the skin, i.e. dermal penetration. The results may be expressed as percentage of dose applied, or as the actual amounts delivered.
The following formulation was used to determine penetration and delivery of glucarolactone in accordance with the Bronaugh flow-through skin penetration cell technique:
Scintillation counting was employed to determine the amount of the enzyme inhibitor, glucarolactone, which had penetrated the skin to a point where it would be available to inhibit glycosaminoglycanase in the immediate environment of the hair bulb.
The results obtained are shown in the following Table 1 in which the values given represent percentages of the glucarolactone dose applied topically which actually penetrates into and through the skin and is recovered at various levels. In addition, the actual amounts of penetrated glucarolactone is given. The results shown are the average and standard error of the mean of 33 determinations.

[1] = dermal (tapes + upper + lower section), 8% w/w glucarolactone formulation, mean ± SEM of 33 determinations
[2] = lower section of skin (hair follicles, dermal papillae), 8% w/w glucarolactone formulation, mean ± SEM of 33 determinations
[3] = tape strips (skin surface), 8% w/w glucarolactone formulation, mean ± SEM of 33 determinations
[4] = total (transdermal + dermal), 8% w/w glucarolactone formulation
[5] = transdermal (receptor fluid), 8% w/w glucarolactone, 10% ethane diol formulation, mean ± SEM of 33 determinations
[6] = upper section of skin, 8% w/w glucarolactone formulation, mean ± SEM of 33 determinations

Compound: O=C(O)[C@@H](O)[C@H]1OC(=O)[C@H](O)[C@H]1O [glucarolactone]
- Actual Amount GL Delivered, Dermal [1]: 72.87 ± 16.62 µg
- Percentage of Applied Dose, Dermal [1]: 3.719 ± 0.848%
- Actual Amount GL Delivered, lower section [2]: 56.63 ± 14.33 µg
- Percentage of Applied Dose, lower section [2]: 2.890 ± 0.731%
- Actual Amount GL Delivered, tapes [3]: 2.38 ± 0.39 µg
- Percentage of Applied Dose, tapes [3]: 0.122 ± 0.020%
- Actual Amount GL Delivered, Total [4]: 80.67 µg
- Percentage of Applied Dose, Total [4]: 4.117%
- Actual Amount GL Delivered, Transdermal [5]: 7.80 ± 2.47 µg
- Percentage of Applied Dose, Transdermal [5]: 0.398 ± 0.126%
- Actual Amount GL Delivered, upper section [6]: 13.86 ± 3.00 µg
- Percentage of Applied Dose, upper section [6]: 0.707 ± 0.153%
